Source: patent US5968932A, “Method of inhibiting sleep apnea” (Gruenenthal GmbH, priority 1998, dated 1999)

Tests used:
central nervous system = settings: known compound, background statement; cited from earlier work
[1] = test system: bulldog with moderately severe obstructive sleep apnea; experiment: Dose study in one bulldog with moderately severe obstructive sleep apnea, Example 2; type: in vivo; settings: for non-REM sleep RDI (respiratory disturbance incidents): saline control 6; for Arousal index: saline control 12; for REM sleep RDI (respiratory disturbance incidents): saline control 44; for Lowest O2 saturation: saline control 89; for Mean sleep efficiency: six hours, saline control 39%
Procedure: In a further experiment, Montirelin was administered on different days at varying dosage levels to one bulldog with moderately severe obstructive sleep apnea. In this bulldog, a double-blind study was conducted in which saline was administered as a control and four different doses of Montirelin (100 mg/kg, 200 mg/kg, 400 mg/kg and 800 mg/kg) were administered. The dog was studied on four different days at each dose of the active compound. […] The order of different doses of drug or saline control was randomized, and a wash-out period of two days was allowed after study of a particular dose. During the studies, respiratory movement, oxygen saturation and electroencephalogram for sleep state were measured. The number of sleep-disordered breathing events or respiratory disturbance incidents (RDI) per hour was calculated according to the formula given above both for non-rapid eye movement (non-REM) sleep, which occupies the majority of sleep time, and rapid eye movement (REM) sleep. Mean sleep efficiency and arousal index were also determined.

[2] = test system: standard English bulldog test model; experiment: English bulldog test model of obstructive sleep apnea (hypersomnolence and sleep disordered breathing), Example 1; type: in vivo; settings: 100 μg/kg i.v.; for Sleep disordered breathing index (SDBI): REM events per REM time/60 min; for Total sleep time (TST): eight hour observation
Procedure: Five bulldogs were implanted with subcutaneous electroencephalogram (EEG) electrodes and instrumented with respiratory oscillation belts (Respitrace™) to measure abdominal and ribcage movements and with an ear oximeter to measure oxygen saturation (SaO2). […] Montirelin in a sterile saline vehicle was administered intravenously to the test animals at a dosage of 100 μg/kg. Each test with active substance was preceded by a control day in which only the saline vehicle was administered. The effect of Montirelin on hypersomnolence and sleep disordered breathing was assessed.
Hypersomnolence was determined by sleep latency and total sleep time. Total sleep time (TST) is expressed as a percentage calculated by dividing the total sleep time in minutes by the total study time in minutes and multiplying the resulting quotient by 100 according to the formula: [formula]
Sleep latency was defined as the total minutes until the onset of non-REM sleep.
Sleep disordered breathing was evaluated in terms of a sleep disordered breathing index (SDBI) defined as the total number of rapid eye movement (REM) events divided by a quantity equal to the total REM time divided by 60 minutes according to the formula: [formula] A REM event (apnea) is defined as an incident of decreased or absent respiration and a decrease of 4% or more in the saturated blood oxygen (SaO2) level occurring during REM sleep.

C[C@H]1SC[C@@H](C(=O)N[C@@H](Cc2c[nH]cn2)C(=O)N2CCC[C@H]2C(N)=O)NC1=O.O.O.O.O [Montirelin, (3R, 6R) -N-[(6-methyl-5-oxo-3-thiomorpholinyl)carbonyl]-L-histidyl-L-prolinamide tetrahydrate]
Central nervous system effect (central nervous system): exhibits central nervous system stimulating effects | non-REM sleep RDI (respiratory disturbance incidents) ([1]; 100 mg/kg i.v.): 8 per hour | Arousal index ([1]; 100 mg/kg i.v.): 16 | REM sleep RDI (respiratory disturbance incidents) ([1]; 100 mg/kg i.v.): 53 per hour | Lowest O2 saturation ([1]; 100 mg/kg i.v.): 92 | Mean sleep efficiency ([1]; 100 mg/kg i.v.): 41% | non-REM sleep-disordered breathing events, result in words ([1]; 200 mg/kg and above, i.v.): significant reduction in non-REM sleep-disordered breathing events | non-REM sleep RDI (respiratory disturbance incidents) ([1]; 200 mg/kg i.v., p < 0.05): 0 per hour | Arousal index ([1]; 200 mg/kg i.v.): 7 | REM sleep RDI (respiratory disturbance incidents) ([1]; 200 mg/kg i.v.): 70 per hour | Lowest O2 saturation ([1]; 200 mg/kg i.v.): 86 | Mean sleep efficiency ([1]; 200 mg/kg i.v.): 37% | REM sleep occurrence, result in words ([1]; 400 mg/kg and 800 mg/kg, i.v.): the animal did not enter REM sleep | non-REM sleep RDI (respiratory disturbance incidents) ([1]; 400 mg/kg i.v.): 4 per hour | Arousal index ([1]; 400 mg/kg i.v.): 12 | Lowest O2 saturation ([1]; 400 mg/kg i.v.): 92 | Mean sleep efficiency ([1]; 400 mg/kg i.v.): 40% | non-REM sleep RDI (respiratory disturbance incidents) ([1]; 800 mg/kg i.v., p < 0.05): 2 per hour | Arousal index ([1]; 800 mg/kg i.v., p < 0.05): 6 | Lowest O2 saturation ([1]; 800 mg/kg i.v.): 93 | Mean sleep efficiency ([1]; 800 mg/kg i.v.): 38% | Dose dependence of non-REM breathing-decline episodes, result in words ([1]; 100 to 800 mg/kg i.v.): dose-dependent reduction in the number of episodes where breathing declines during non-REM sleep | Number of arousals per hour, result in words ([1]; i.v., versus saline): did reduce the number of arousals per hour | Oxyhemoglobin saturation during breathing episodes, result in words ([1]; i.v., versus saline): no effect on oxyhemoglobin saturation during breathing episodes | Sleep efficiency, result in words ([1]; i.v., versus saline): did not affect sleep efficiency | REM sleep RDI, result in words ([1]; lower dose levels, i.v.): there does not appear to have been an impact on REM sleep RDI | Awakening / sleep pattern, result in words ([2]; versus saline control): awaken less frequently and thus exhibit markedly better consolidated sleep patterns | Reduction in sleep disordered breathing ([2]; versus saline control): approximately 50% | Sleep depth, result in words ([2]; versus saline control): sleep may be somewhat shallower | Total sleep time, result in words ([2]; versus saline control): only a slight reduction in total sleep time | Sleep disordered breathing index (SDBI), average ([2]; Average of 5 dogs, saline control 15.9 ± 11): 8.7 ± 10 | Total sleep time (TST), average ([2]; Average of 5 dogs, saline control 20.9 ± 8.3): 16.4 ± 8.5% | Sleep latency, average ([2]; Average of 5 dogs, saline control 91.4 ± 14): 142 ± 61.4 min | Sleep latency (minutes until onset of non-REM sleep) ([2]; Test dog 1): 47 min | Sleep disordered breathing index (SDBI) ([2]; Test dog 1): 7.2 | Total sleep time (TST) ([2]; Test dog 1): 18.5% | Sleep latency (minutes until onset of non-REM sleep) ([2]; Test dog 2): 149 min | Sleep disordered breathing index (SDBI) ([2]; Test dog 2): 8.2 | Total sleep time (TST) ([2]; Test dog 2): 17.0% | Sleep latency (minutes until onset of non-REM sleep) ([2]; Test dog 3): 145 min | Sleep disordered breathing index (SDBI) ([2]; Test dog 3): 2.6 | Total sleep time (TST) ([2]; Test dog 3): 26.7% | Sleep latency (minutes until onset of non-REM sleep) ([2]; Test dog 4): 150 min | Sleep disordered breathing index (SDBI) ([2]; Test dog 4): 0.0 | Total sleep time (TST) ([2]; Test dog 4): 17.0% | Sleep latency (minutes until onset of non-REM sleep) ([2]; Test dog 5): 219 min | Sleep disordered breathing index (SDBI) ([2]; Test dog 5): 25.7 | Total sleep time (TST) ([2]; Test dog 5): 3.0%
